# Measured values as given in US6911454B1, “Method for potentiating primary drugs in treating multidrug resistant disease” (priority 1989, dated 2005).
# Like-named read-outs stand apart in the source and are kept apart here.
# Tests used:
# [1] = tested on: DX20 cancer cells; assay: modified MTT assay, drug sensitivity of DX20 cells; type: cell-based, human
# Excerpt: The MES-SA/DX20 cell line was established according to the development methods of Sikic et al., Resistance to Antineoplastic Drugs, Chap. 3, CRC Press, Ed. David Kessel, pp. 37-47 (1989). In vitro drug sensitivity testing consisted of two assay models, the modified MTT assay (Mossman, J. Immunolog. Methods, Vol. 65, pp. 55-63, 1983) and the colonogenic assay. In addition to this, the combinations were investigated in vivo in nude mice bearing the DX20 cell line. The MTT assay was chosen because of its practical advantages in large-scale screening. The assay involved cellular conversion of tetrazolium salt to a colored formazan serving as a measurement of cell viability.
# In a given experiment, culture media, 50 microliters, containing 8,000-25,000 cells, depending on the proliferation rate of the cell line, was pipetted into each well of several 96-well microtiter plates. The cells were allowed to attach overnight. […] The cytotoxic drug, also at a concentration below that previously established as an IC50, was then added at decreasing concentrations by 25% to several half plate sections. The cells were allowed to grown for 72 hours. 100 microliters of media was then removed and 25 microliters of 5 mg/ml MTT (Sigma, St. Louis, Mo.) in phosphate buffered saline was added to each well. The plates were kept in an incubator at 37° C. and 5% CO2. After 2-3 hours of incubation, the extraction buffer containing 20% w/v SDS and 50% DMF was added and the plates again incubated overnight. The plates were read at a test wavelength of 570 nm on a multiwell spectrophotometer (Model MR 700, Dynatech Laboratories, Alexandria, Va.). Each drug combination was tested in triplicate. Percent survival was defined as percent of optical density (OD) of the drug-treated wells to that of the control detected by the spectrophotometer.
# The in vitro drug sensitivity testing of ethyl fangchinoline consisted of two assay models, the modified MTT (Mossman 1983) and a colony formation assay in which a direct measure was taken by quantitation of colony formation. The MTT assay was chosen because of its practical advantages in large scale screening. The assay involves cellular conversion of tetrozolium salt to a colored formazan serving as a measurement of cell viability.
# Two human cell lines were chosen as the primary targets of study in reversing multiple-drug resistance. The MES-SA, a sarcoma, and its resistant subline, DX-20, were kindly donated by Dr. B. Sikic (U of Stanford, Stanford, Calif.). The A2780, an ovarian cancer, and its resistant subline, A2780-ad10, were provided by Roswell Park Memorial Inst. (Buffalo, N.Y.).
# Culture media, 50 ul containing 8,000 to 25,000 cells depending on the proliferation rate of the line, was pipetted into each of 96 wells in a flat bottom tissue plate. The cells were incubated overnight to allow adherence. One hundred ul of ethyl fangchinoline, at a concentration below that previously established as an independent IC50, was added to each experimental well. […] The plates were then incubated for 72 hours before MTT was added and the analysis of O.D. values interpreted by a multi-plate scanner (MR700, Dynatech).
# [2] = tested on: multidrug resistant human cancer (DX20); type: in vivo, mice; conditions: d-tetrandrine 0.5, 1, 1.5 mg injections; doxorubicin 5.5 mg per kg; about one month
# Description: It is only important that they be administered sufficiently close together that the cancer is exposed to both simultaneously. For example, nude mice infected with a multidrug resistant human cancer were given 0.5 mg, 1 mg and 1.5 mg respectively in three separate injections, 72 hours apart.
# [3] = tested on: resistant (K562-R7) cancel cells; assay: doxorubicin fluorescence test by flow cytometry; type: cell-based; conditions: FIG. 12, resistant cells pre-incubated with tetrandrine
# [4] = tested on: CQ-resistant (W-2) strain of P. falciparum; assay: 3H-adenosine incorporation, chloroquine-resistant P. falciparum; type: cell-based
# Description: Chloroquine and qinghaosu are commonly used antimalarial drugs.
# The dose (IC50) of each drug or each drug combination required to effect a 50% inhibition in the malarial activity of each strain was determined by establishing a dose response curve for each.
# FCMSU1/Sudan strain and cloned Indochina (W-2) strain of P. falciparum were used. […] The two strains of the parasite were cultured according to the candle jar method of Trager and Jensen, Science, Vol. 193, pages 673-675 (1976). In a given experiment, four-day-old Petri dish cultures (approximately 10% parasitemia) were diluted with medium containing an amount of noninfected type A human erythrocytes to obtain a culture with a final hematocrit of 1.5% and parasitemia of 0.5-1.0%. The resulting culture was ready for addition to microtitration plates with ninety-six flat-bottom wells.
# The testing procedure used was similar to that described by Desjardins et al. in “Antimicrobial Agents and Chemotherapy,” Vol. 16, pages 710-718 (1979). […] 25 microliters radioactive (0.5 microCi) [2,8-^3H] adenosine. The microtitration plates were incubated in a candle jar for an additional 18 hours, at 37° C.
# As the malaria parasite grows ^3H-adenosine is metabolized and incorporates into polymeric RNA and DNA. The labeled polymers are trapped on glass fiber filters and unincorporated material is washed away. In the absence of drug there is 100% incorporation of the labeled material. When drugs interfere (directly or indirectly), an inhibitory dose of 50% (IC50) can be calculated. The experiments were repeated three times except where noted. Statistical analysis was done using Student's T-test for significance. Van Kyke et al. “Exp. Parasitol,” Vol. 64, pages 418-423 (1987).
# The test procedure was basically the same as outlined above.
# [5] = tested on: A2780AD10; conditions: FIG. 4; A2780AD10 versus parent A2780; addition of d-tetrandrine
# [6] = tested on: DX20; conditions: FIG. 5; colony formation, 7 days; addition of d-tetrandrine
# Description: The second assay model used, colony formation assay, consisted of 1000-1500 cells, again depending on the proliferation rate of the cell line being added to each well of 24 well microtiter plates in 500 microliters of culture media. The cells were allowed to attach overnight. […] The plates were incubated for a total of 7 days before being fixed in 2.5% glutaraldehyde and stained with crystal violet. Quantitations of colony growth were assessed using an ultrasensitive imaging device (LCVS-5, I.P.S., Pittsburgh, Pa.). A colony is defined as any cluster of 30 or more cells. Percent inhibition was directly measured against control plates containing no drugs.
smiles,measurement,setting,value
"COc1ccc2cc1Oc1ccc(cc1)C[C@H]1c3cc(c(OC)cc3CCN1C)Oc1c(OC)c(OC)cc3c1[C@H](C2)N(C)CC3 [TT, tetrandrine]",IC50,"[1]; DX20 cells, single agent, read-out: IC50 alone",4300 nM
same,doxorubicin resistance reversal,"[1]; FIG. 1, DX20 versus parent MES-SA, addition of d-tetrandrine",either partially or completely reversed
same,vincristine-resistance reversal,"[1]; FIG. 2, DX20 versus parent MES-SA, addition of d-tetrandrine",either partially or completely reversed
same,vinblastine resistance reversal,"[1]; FIG. 3, DX20 versus parent MES-SA, addition of d-tetrandrine",either partially or completely reversed
same,sensitivity of DX20 to doxorubicin versus parent (MES) cell line,[1]; d-tetrandrine 1.0×10^−6 M combined with doxorubicin 1.2×10^−8 M,becomes more sensitive to doxorubicin than the parent (MES) cell line
same,tumor outcome,[2],very large tumors which were unabated
same,doxorubicin concentration (fluorescence) in resistant versus sensitive cells,[3]; listed as d-tetrandrine,greater in the resistant cancer than it is in the sensitive cancer
same,doxorubicin concentration (fluorescence) in resistant versus sensitive cells,[3]; listed as tetrandrine (TT),contains more doxorubicin than the sensitive strain
same,IC50,"[4]; R STRAIN, TT/CQ 10:1, mean ± S.D, read-out: IC50 DRUG COMBINATION TT(2.0 uM) CQ(0.2 uM)",79.5 ± 16.1 nM
same,IC50,"[4]; R STRAIN, TT/QHS 10:1, mean ± S.D, read-out: IC50 DRUG COMBINATION TT(2.0 uM) QHS(0.2 uM)",71.8 ± 13.8 nM
same,IC50,"[4]; Table III, R STRAIN, mean ± S.D, read-out: IC50 SINGLE DRUG",198 ± 24.7 nM
same,IC50,"[4]; Table IV, R STRAIN, mean ± S.D, read-out: IC50 SINGLE DRUG",206 ± 49.8 nM
same,IC50,"[4]; Table VII, chloroquine-resistant strain, drug alone, read-out: IC50 R",120 nM
same,IC50,"[4]; read-out: IC50 DRUG COMBINATION TT(1.0 uM) CQ(0.3 uM), R STRAIN, TT/CQ 10:3, mean ± S.D",79.5 ± 13.7 nM
same,IC50,"[4]; read-out: IC50 DRUG COMBINATION TT(1.0 uM) QHS(0.3 uM), R STRAIN, TT/QHS 10:3, mean ± S.D",59.6 ± 13.7 nM
same,IC50,"[4]; read-out: IC50 DRUG COMBINATION TT(3.0 uM) CQ(0.1 uM), R STRAIN, TT/CQ 30:1, mean ± S.D",125 ± 9.6 nM
same,IC50,"[4]; read-out: IC50 DRUG COMBINATION TT(3.0 uM) QHS(0.1 uM), R STRAIN, TT/QHS 30:1, mean ± S.D",137 ± 41.6 nM
same,doxorubicin resistance reversal,[5],either partially or completely reversed
same,doxorubicin-resistance reversal,[6],either partially or completely reversed
